Experimental data taken from US10172356B2, “Bipyridine compound and use of same for noxious arthropod control” (Sumitomo Chemical Company, Limited, priority 2015, dated 2019).

Assays:
Type in all cases: in vivo
[1] = tested on: cotton aphid (Aphis gossypii); experiment: Comparative Experiment 2 (method of Test Example 2: cotton aphid, spray, 200 ppm); conditions: cotton aphid on cucumber seedling, 200 ppm (method of Test Example 2)
Protocol: Cucumber seedling (on the developmental stage of the first true leaf) was planted in a polyethylene cup and 30 heads of cotton aphid (Aphis gossypii) (all stages of life) were released onto the leaves of the cucumber and allowed to stand for 1 day. The diluted solutions 20 mL were sprayed into the seedling. Cucumber (cv; Sagami-hanjiro-fushinari) was grown in a polyethylene cup until the first true leaf was developed. Approximately 30 heads of cotton aphid (Aphis gossypii) (including the adults and the larvae) was released onto the leaves of the […] and next day, the above-mentioned testing drug dilutions 20 mL were sprayed. After 6 days, the number of the surviving insects that were parasitic on the leaves of the cucumber was examined and the controlling value was calculated by the following equation. Controlling value (%)={1-(Cb×Tai)/(Cai×Tb)}×100 wherein the symbols in the formula represent the following descriptions. Cb: Number of the insects before treatment in untreated area; Cai: Number of the surviving parasitic insects at the time of the investigation in untreated area; Tb: Number of the insects before treatment in treated area; Tai: Number of the surviving parasitic insects at the time of the investigation in treated area; Here the “untreated area” represents an area that was sprayed by a diluted solution of the formulation described in the Formulation Example 5 without the compound A with water in the same amount as that of the treated area. […] Here A represents 100%, B represents 90 to 99%, C represents 60 to 89%, D represents 30 to 59% and represents 0 to 29% as a control value.

[2] = tested on: cotton aphid (Aphis gossypii); experiment: Comparative Experiment 3 (method of Test Example 3: cotton aphid, irrigation, 200 ppm); conditions: cotton aphid on cucumber seedling, irrigation into plant foot, 200 ppm (method of Test Example 3)
Protocol: Cucumber seedling (on the developmental stage of the second true leaf) was planted in a polyethylene cup, and the diluted solutions 5 mL were irrigated into the plant foot, and the plants were held at 25° C. in a greenhouse for 7 days. Approximately 30 heads of cotton aphid (Aphis gossypii) (all stages of life) were inoculated onto the cucumber leaves and the plants were held in a greenhouse for additional 6 days, and then the number of the surviving […] parasitic on the cucumber leaves was examined and the controlling value was calculated by the following equation. Controlling value (%)={1-(Cb×Tai)/(Cai×Tb)}×100 wherein the symbols in the formula represent the following descriptions. Cb: Number of the insects before treatment in untreated area; Cai: Number of the surviving parasitic insects at the time of the investigation in untreated area; Tb: Number of the insects before treatment in treated area; Tai: Number of the surviving parasitic insects at the time of the investigation in treated area; Here the “untreated area” represents an area that was sprayed by a diluted solution of the formulation described in the Formulation Example 5 without the compound A with water in the same amount as that of the treated area. […] Here A represents 100%, B represents 90 to 99%, C represents 60 to 89%, D represents 30 to 59% and represents 0 to 29% as a control value.

[3] = tested on: brown planthopper (Nilaparvata lugens); experiment: Comparative Experiment 5 (method of Test Example 5: brown planthopper, spray, 200 ppm); conditions: brown planthopper on rice seedling, 200 ppm (method of Test Example 5)
Protocol: Rice seedling (on the developmental stage of the second true leaf) was planted in a polyethylene cup, and the diluted solutions 10 mL were sprayed. After air drying, 20 heads of 3rd to 4th instar larvae of brown planthopper (Nilaparvata lugens) were released onto the rice leaves and the plants were held at 25° C. in a greenhouse. After 6 days, the number of the surviving insects that were parasitic on the leaves of the rice was examined and the controlling value was calculated by the following equation. Controlling value (%)={1-(Cb×Tai)/(Cai×Tb)}×100 wherein the symbols in the formula represent the following descriptions. Cb: Number of the insects before treatment in untreated area; Cai: Number of the surviving parasitic insects at the time of the investigation in untreated area; Tb: Number of the insects before treatment in treated area; Tai: Number of the surviving parasitic insects at the time of the investigation in treated area; Here the “untreated area” represents an area that was sprayed by a diluted solution of the formulation described in the Formulation Example 5 without the compound A with water in the same amount as that of the treated area. […] Here A represents 100%, B represents 90 to 99%, C represents 60 to 89%, D represents 30 to 59% and represents 0 to 29% as a control value.

[4] = tested on: western corn rootworm (Diabrotica virgifera virgifera); experiment: Test Example 10: western corn rootworm on corn seedling immersed in diluted solution, 500 ppm; conditions: 120 h, corn seedling immersed 30 seconds, second instar larvae, after 5 days, 25° C., read-out: Mortality of insects
Protocol: The compound S-1 was mixed with a mixed solution of acetone and polyoxyethylene sorbitan mono-cocoate (acetone and polyoxyethylene sorbitan mono-cocoate=95 : 5 (weight ratio)) a ratio of 50 μL of the mixed solution per 1 mg of the compound S-1, and the resulting mixtures were then diluted with ion-exchange water containing 0.03% by volume of shindain (registered trademark, manufactured by Sumitomo Chemical Co. Ltd.) so that the concentration of the compound S-1 was set to 500 ppm to prepare the diluted solution of the compound S-1.
Corns (Xea mays) were sown on a tray overlaid with damped KimWipes (registered trademark). After corns were grown for 5 days, the entire seedling of the corn was immersed into the diluted solution for 30 seconds. After the seedling was dried, two grains of the seedling were installed in a plastic petri dish ([…]), and ten heads of western corn rootworm (Diabrotica virgifera virgifera) at the second instar larval stages were released onto the petri dish and the petri dish was covered with the lid. The petri dish was held at 25° C. and after 5 days, the number of died insects was counted and the mortality of insects was calculated by the following equation. Mortality of insects (%)=(Number of dead insects/Number of tested insects)×100
Similarly, using the compounds S-2, S-3, S-7, S-10, O-1 and O-2 instead of the compound S-1, the tests were carried out.

[5] = tested on: cabbage moth (Plutella xylostella); experiment: Test Example 7: cabbage moth on sprayed cabbage, 500 ppm; conditions: 120 h, 20 mL/cup sprayed on cabbage, second instar larvae, after 5 days, 25° C., read-out: Mortality of insects
Protocol: Each of the compounds S-1, S-5, S-7, S-8, S-9, S-10, O-1, and O-2 was made to a formulation according to a similar method to that described in the Formulation example 5 and was then diluted with water so that each of the active ingredient concentration was set to 500 ppm to prepare each of the diluted solution.
A cabbage in the third leaf stage was planted in a polyethylene cup, and thereto was sprayed the diluted solution in ratio 20 mL/cup. After the above-mentioned dilutions were dried, and the stem and leaf thereof was cut and then was stalled in a 50 mL cup, and five heads of cabbage moth (Plutella xylostella) at the second instar larval stages were released into the cup and the cup was covered with the lid. The cup was held at 25° C. and after 5 days, the number of died insects was counted and the mortality of insects was calculated by the following equation. Mortality of insects (%)=(Number of dead insects/Number of tested insects)×100

[6] = tested on: cabbage moth (Plutella xylostella); experiment: Test Example 8: cabbage moth on sprayed cabbage, 200 ppm; conditions: 120 h, 20 mL/cup sprayed on cabbage, second instar larvae, after 5 days, 25° C., read-out: Mortality of insects
Protocol: Each of the compounds S-7, S-8, S-9, S-10, and O-2 was made to a formulation according to a similar method to that described in the Formulation example 5 and was then diluted with water so that each of the active ingredient concentration was set to 200 ppm to prepare each of the diluted solution.
A cabbage in the third leaf stage was planted in a polyethylene cup, and thereto was sprayed the diluted solution in a ratio of 20 mL/cup. After the above-mentioned dilutions were dried, and the stem and leaf thereof was cut and then was installed in a 50 mL cup, and five heads of cabbage moth (Plutella xylostella) at the second instar larval stages were released into the cup and the cup was covered with the lid. The cup was held at 25° C. and after 5 days, the number of died insects was counted and the mortality insects was calculated by the following equation. Mortality of insects (%)=(Number of dead insects/Number of tested insects)×100

[7] = tested on: female adult housefly (Musca domestica); experiment: whole plant or invertebrate; conditions: 24 h, read-out: Mortality of insects
Protocol: Each of the compounds S-2, S-3, S-7, S-8, and N-1 was made to a formulation according to a similar method to that described in the Formulation example 5 and was then diluted with water so that each of the active ingredient concentration was set to 500 ppm to prepare each of the diluted solution.
The bottom of the polyethylene cup having 5.5 cm diameter was matted with the same size of a filter paper, and 0.7 mL of the diluted solution was added dropwise to the filter paper and 30 mg sucrose as bait was placed in the cup uniformly. Ten (10) heads of female adult housefly (Musca domestica) were released into the polyethylene cup and the cup was covered with the lid. After 24 hours, the life and death of housefly was examined and the number of died insects was counted and the mortality of insects was calculated by the following equation. Mortality of insects (%)=(Number of dead insects/Number of tested insects)×100

Row | Structure (SMILES) | control value, Comparative Experiment 2 [1] | control value, Comparative Experiment 3 [2] | control value, Comparative Experiment 5 [3] | mortality at 500 ppm [4] [%] | mortality at 500 ppm [5] [%] | mortality at 200 ppm [6] [%] | mortality at 500 ppm [7] [%]
1 | FC(F)(F)Sc1ccc(-c2ccc(C(F)(F)F)cc2Cl)nc1 [Compound V-11, reference compound] | E (represents 0 to 29% as a control value) | E (represents 0 to 29% as a control value) | E (represents 0 to 29% as a control value) | – | – | – | –
2 | CCS(=O)(=O)c1cccnc1-c1ccc([S+]([O-])C(F)(F)F)cn1 (centres unmarked) [Compound S-8] | A (A represents 100%) | A (A represents 100%) | A (A represents 100%) | – | – | – | –
3 | CCS(=O)(=O)c1cccnc1-c1ccc(OS(=O)(=O)C(F)(F)F)cn1 [Compound O-1] | – | – | – | ≥ 80 | ≥ 80 | – | –
4 | FC(F)(F)CSc1ccc(-c2ccc(C(F)(F)F)cc2)nc1 [Compound V-7, reference compound] | E (represents 0 to 29% as a control value) | E (represents 0 to 29% as a control value) | D (D represents 30 to 59%) | – | – | – | –
5 | CCS(=O)(=O)c1cccnc1-c1ccc(OS(=O)(=O)CC(F)(F)F)cn1 [Compound O-2] | – | – | – | ≥ 80 | ≥ 80 | ≥ 80 | –
6 | CCS(=O)(=O)c1cccnc1-c1ccc(SCC(F)(F)F)cn1 [Compound S-1] | A (A represents 100%) | B (B represents 90 to 99%) | A (A represents 100%) | – | ≥ 80 | – | –
7 | [O-][S+](c1ccc(-c2ccc(C(F)(F)F)cc2Cl)nc1)C(F)(F)F (centres unmarked) [Compound V-12, reference compound] | E (represents 0 to 29% as a control value) | E (represents 0 to 29% as a control value) | E (represents 0 to 29% as a control value) | – | – | – | –
8 | CCS(=O)(=O)c1cccnc1-c1ccc(SCC(F)(F)C(F)(F)F)cn1 [Compound S-4] | – | – | – | ≥ 80 | – | – | –
9 | CCS(=O)(=O)c1cccnc1-c1ccc(SC(F)(F)F)cn1 [Compound S-7] | A (A represents 100%) | A (A represents 100%) | A (A represents 100%) | ≥ 80 | ≥ 80 | ≥ 80 | 100
